How the values were obtained:
[1] = compound: CCN1CCN(Cc2ccc(Nc3ncc(F)c(-c4cc(F)c5nc(C)n(C(C)C)c5c4)n3)nc2)CC1
[2] = compound: Cc1nc(-c2cn3c(n2)-c2ccc(-c4cnn(C(C)(C)C(N)=O)c4)cc2OCC3)n(C(C)C)n1 [Taselisib/GDC0032]
[3] = compound: CS(=O)(=O)N1CCN(Cc2cc3nc(-c4cccc5[nH]ncc45)nc(N4CCOCC4)c3s2)CC1 [Pictilisib/GDC0941]
[4] = compound: O=C1NC(=O)[C@@H](c2cn3c4c(cccc24)CCC3)[C@@H]1c1c[nH]c2ccccc12 [Tivantinib/ARQ197]
[5] = compound: COc1ccc2c(c1)[C@]1(C[C@H]1c1ccc3c(/C=C/c4ccc(CN5C[C@@H](C)O[C@@H](C)C5)cc4)n[nH]c3c1)C(=O)N2
[6] = compound: CC[C@@H]1C(=O)N(C)c2cnc(Nc3ccc(C(=O)N[C@H]4CC[C@H](N5CCN(CC6CC6)CC5)CC4)cc3OC)nc2N1C(C)C [Volasertib/BI6727]
[7] = compound: T1, CCOc1cc2ncc(C#N)c(Nc3ccc(OCc4ccccn4)c(Cl)c3)c2cc1NC(=O)/C=C/CN(C)C [Neratinib/HKI272]
[8] = compound: Cc1cc(Nc2ncc(Cl)c(Nc3ccccc3S(=O)(=O)C(C)C)n2)c(OC(C)C)cc1C1CCNCC1 [Ceritinib/LDK378]
[9] = compound: T2, CC(=O)c1c(C)c2cnc(Nc3ccc(N4CCN(CCOCCOCCOCCNC(=O)COc5cccc6c5C(=O)N(C5CCC(=O)NC5=O)C6=O)CC4)cn3)nc2n(C2CCCC2)c1=O [BSJ-03-123]
[10] = compound: T3, CN(C)C(=O)c1cc2cnc(Nc3ccc(N4CCNCC4)cn3)nc2n1C1CCCC1 [LEE011/Ribociclib]
[11] = compound: CC(C)n1nc(-c2ccc3oc(N)nc3c2)c2c(N)ncnc21 [INK128/MLN0128]
[12] = compound: CC(=O)O[C@H]1C(=O)[C@@]2(C)[C@H]([C@H](OC(=O)c3ccccc3)[C@]3(O)C[C@H](OC(=O)[C@H](O)[C@@H](NC(=O)c4ccccc4)c4ccccc4)C(C)=C1C3(C)C)[C@]1(OC(C)=O)CO[C@@H]1C[C@@H]2O [Paclitaxel]
[13] = compound: CN(C)CC[C@H](CSc1ccccc1)Nc1ccc(S(=O)(=O)NC(=O)c2ccc(N3CCN(Cc4ccccc4-c4ccc(Cl)cc4)CC3)cc2)cc1[N+](=O)[O-] [ABT-737]
[14] = compound: CN(C)C/C=C/C(=O)Nc1ccc(C(=O)N2CCC[C@@H](Nc3ncc(Cl)c(-c4c[nH]c5ccccc45)n3)C2)cc1 [THZ531]
[15] = compound: CCN1CCN(Cc2ccc(Nc3ncc(F)c(-c4cc(F)c5nc(C)n(C(C)C)c5c4)n3)nc2)CC1; assay: GR value, 72 h; higher = faster growth (1 = untreated, <0 = killing);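 further: breast cancer and non-malignant breast epithelial lines, nine half-log doses, viable cells counted by Hoechst and LIVE/DEAD dye imaging versus time-zero plates and DMSO controls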
[16] = compound: CCc1cnn2c(NCc3ccc[n+]([O-])c3)cc(N3CCCC[C@H]3CCO)nc12; assay: as above
[17] = compound: T1, Neratinib/HKI272; assay: as above
[18] = compound: T2, BSJ-03-123; assay: as above
[19] = compound: T3, LEE011/Ribociclib; assay: as above
[20] = compound: C=CC(=O)Nc1ccc(C(=O)Nc2[nH]nc3c2CN(C(=O)N[C@H](CN(C)C)c2ccccc2)C3(C)C)cc1 [YKL-5-124]; assay: as above
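Wherever GR50, 72 h is given: breast cancer and non-malignant breast epithelial cell lines, Deep Dye Drop or Dye Drop imaging, nine half-log doses, GR normalized to time-zero plates and DMSO-only controls.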

For UACC893, the “GR50, 72 h” value [1] was 0.00967 µM, the “GR50, 72 h” value [2] was 0.00346 µM and the “GR50, 72 h” value [3] was 0.682 µM. The “GR50, 72 h” value [4] was 0.297 µM, the “GR50, 72 h” value [5] was 0.0124 µM and the “GR50, 72 h” value [6] was 0.00357 µM. The “GR50, 72 h” value [7] was 0.00274 µM, the “GR50, 72 h” value [8] was greater than 10 µM and the “GR50, 72 h” value [9] was 1.46 µM. The “GR50, 72 h” value [10] was 0.0051 µM, the “GR50, 72 h” value [11] was 0.00694 µM and the “GR50, 72 h” value [12] was 0.00216 µM. The “GR50, 72 h” value [13] was 9.97 µM, the “GR50, 72 h” value [14] was 0.0414 µM and the GR value ([15]; 0.001 µM) was 0.682 GR. For the same cell line, the GR value ([15]; 0.003162 µM) was 0.508 GR, the GR value ([15]; 0.01 µM) was 0.42 GR and the GR value ([15]; 0.03162 µM) was 0.344 GR. For the same cell line, the GR value ([15]; 0.1 µM) was 0.305 GR, the GR value ([15]; 0.3162 µM) was 0.272 GR and the GR value ([15]; 1 µM) was 0.262 GR. It also gave a GR value ([15]; 3.162 µM) of 0.241 GR, a GR value ([15]; 10 µM) of -0.088 GR and a GR value ([16]; 0.0001 µM) of 0.963 GR. For the same cell line, the GR value ([16]; 0.0003162 µM) was 0.894 GR, the GR value ([16]; 0.001 µM) was 1 GR and the GR value ([16]; 0.003162 µM) was 0.997 GR. It also gave a GR value ([16]; 0.01 µM) of 0.865 GR, a GR value ([16]; 0.03162 µM) of -0.169 GR and a GR value ([16]; 0.1 µM) of -0.503 GR. It also gave a GR value ([16]; 0.3162 µM) of -0.612 GR, a GR value ([16]; 1 µM) of -0.649 GR and a GR value ([17]; 0.0003162 µM) of 1.06 GR. It also gave a GR value ([17]; 0.001 µM) of 0.922 GR, a GR value ([17]; 0.003162 µM) of 0.372 GR and a GR value ([17]; 0.01 µM) of -0.192 GR. It also gave a GR value ([17]; 0.03162 µM) of -0.409 GR, a GR value ([17]; 0.1 µM) of -0.604 GR and a GR value ([17]; 0.3162 µM) of -0.688 GR. It also gave a GR value ([17]; 1 µM) of -0.784 GR, a GR value ([17]; 3.162 µM) of -0.908 GR and a GR value ([18]; 0.001 µM) of 0.933 GR. The GR value ([18]; 0.003162 µM) was 0.792 GR, the GR value ([18]; 0.01 µM) was 0.726 GR and the GR value ([18]; 0.03162 µM) was 0.878 GR. For the same cell line, the GR value ([18]; 0.1 µM) was 0.644 GR, the GR value ([18]; 0.3162 µM) was 0.502 GR and the GR value ([18]; 1 µM) was 0.538 GR. The GR value ([18]; 3.162 µM) was 0.498 GR, the GR value ([18]; 10 µM) was 0.283 GR and the GR value ([19]; 0.001 µM) was 0.564 GR. For the same cell line, the GR value ([19]; 0.003162 µM) was 0.501 GR, the GR value ([19]; 0.01 µM) was 0.497 GR and the GR value ([19]; 0.03162 µM) was 0.461 GR. It also gave a GR value ([19]; 0.1 µM) of 0.494 GR, a GR value ([19]; 0.3162 µM) of 0.422 GR and a GR value ([19]; 1 µM) of 0.473 GR. It also gave a GR value ([19]; 3.162 µM) of 0.48 GR, a GR value ([19]; 10 µM) of 0.484 GR and a GR value ([20]; 0.001 µM) of 0.472 GR. It also gave a GR value ([20]; 0.003162 µM) of 0.473 GR, a GR value ([20]; 0.01 µM) of 0.363 GR and a GR value ([20]; 0.03162 µM) of 0.342 GR. For the same cell line, the GR value ([20]; 0.1 µM) was 0.215 GR, the GR value ([20]; 0.3162 µM) was 0.246 GR and the GR value ([20]; 1 µM) was 0.219 GR. The GR value ([20]; 3.162 µM) was 0.119 GR and the GR value ([20]; 10 µM) was -0.629 GR.

Source: the supplement of paper PMC9663587
